Consider 4 cell lines from the supplement of paper PMC10307832.

Holding throughout (experiment): relative viability (nuclei count vs DMSO), 5 days (fraction); higher = more cells survive
Compound in the assay “BI-2536 + Luminespib”: CC[C@@H]1C(=O)N(C)c2cnc(Nc3ccc(C(=O)NC4CCN(C)CC4)cc3OC)nc2N1C1CCCC1 [BI-2536] + CCNC(=O)c1noc(-c2cc(C(C)C)c(O)cc2O)c1-c1ccc(CN2CCOCC2)cc1 [Luminespib] (partner 0.01 µM)
Summed up: (§1)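 Medians of duplicate plates are given as relative viability. That measure is the nuclei count in treated wells divided by the count in vehicle wells. Counts were taken on 4× images of lung cancer cell lines in 1536-well plates, 5 days after pin-tool dosing the day after seeding with one drug alone or a fixed anchor-drug dose plus five library-drug doses (not always all listed) in √10 steps.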

Compound in the assay “BI-2536 + AZD7762”: CC[C@@H]1C(=O)N(C)c2cnc(Nc3ccc(C(=O)NC4CCN(C)CC4)cc3OC)nc2N1C1CCCC1 [BI-2536] + NC(=O)Nc1cc(-c2cccc(F)c2)sc1C(=O)N[C@H]1CCCNC1 [AZD7762] (partner 0.2 µM)
Summed up: as §1

Compound in the assay “BI-2536 + Lapatinib”: CC[C@@H]1C(=O)N(C)c2cnc(Nc3ccc(C(=O)NC4CCN(C)CC4)cc3OC)nc2N1C1CCCC1 [BI-2536] + CS(=O)(=O)CCNCc1ccc(-c2ccc3ncnc(Nc4ccc(OCc5cccc(F)c5)c(Cl)c4)c3c2)o1 [Lapatinib] (partner 2 µM)
Summed up: as §1

Compound in the assay “NPK76-II-72-1 + OSI-027”: CC1CC(=O)N(C2=CN=C(N=C2N1C3CCCC3)NC4=C(C=C(C=C4)C(=O)NC5CCN(CC5)C)OC)C [NPK76-II-72-1] + COc1cccc2cc(-c3nc([C@H]4CC[C@H](C(=O)O)CC4)n4ncnc(N)c34)[nH]c12 [OSI-027] (partner 0.5 µM)
In short, it runs like this: as §1

With LU99A, the relative viability in the assay with BI-2536 + Luminespib (first compound 0.01 µM) turned out to be 0.251; with BI-2536 + Luminespib (first compound 0.03162 µM), 0.254; with BI-2536 + Luminespib (first compound 0.1 µM) it was 0.194; with BI-2536 + Luminespib (first compound 0.3162 µM) it was 0.159; with BI-2536 + Luminespib (first compound 1 µM), 0.241; with BI-2536 + AZD7762 (first compound 0.01 µM), 0.309. The relative viability with BI-2536 + AZD7762 (first compound 0.03162 µM) is 0.334; with BI-2536 + AZD7762 (first compound 0.1 µM), 0.111; in the assay with BI-2536 + AZD7762 (first compound 0.3162 µM), 0.145; with BI-2536 + AZD7762 (first compound 1 µM), 0.102; with BI-2536 + Lapatinib (first compound 0.01 µM) it was 0.889; with BI-2536 + Lapatinib (first compound 0.03162 µM), 1.07. Besides, the relative viability with BI-2536 + Lapatinib (first compound 0.1 µM) came to 0.193; with BI-2536 + Lapatinib (first compound 0.3162 µM) it was 0.202; in the assay with BI-2536 + Lapatinib (first compound 1 µM), 0.211; with NPK76-II-72-1 + OSI-027 (first compound 0.01 µM), 0.309; with NPK76-II-72-1 + OSI-027 (first compound 0.03162 µM) it was 0.285; in the assay with NPK76-II-72-1 + OSI-027 (first compound 0.1 µM), 0.241. For the same cell line, the relative viability was found to be 0.278 with NPK76-II-72-1 + OSI-027 (first compound 0.3162 µM) and 0.299 with NPK76-II-72-1 + OSI-027 (first compound 1 µM).
NCI-H647: the relative viability was found to be 0.13 with BI-2536 + Luminespib (first compound 0.01 µM); 0.193 with BI-2536 + Luminespib (first compound 0.03162 µM); 0.141 with BI-2536 + Luminespib (first compound 0.1 µM); 0.0872 in the assay with BI-2536 + Luminespib (first compound 0.3162 µM); 0.116 with BI-2536 + Luminespib (first compound 1 µM); 0.542 with BI-2536 + AZD7762 (first compound 0.01 µM). For the same cell line, the relative viability in the assay with BI-2536 + AZD7762 (first compound 0.03162 µM) amounted to 0.308; with BI-2536 + AZD7762 (first compound 0.1 µM), 0.257; in the assay with BI-2536 + AZD7762 (first compound 0.3162 µM), 0.0341; with BI-2536 + AZD7762 (first compound 1 µM), 0.0503; with BI-2536 + Lapatinib (first compound 0.01 µM) it was 1.11; with BI-2536 + Lapatinib (first compound 0.03162 µM) it was 0.737. The relative viability came to 0.104 with BI-2536 + Lapatinib (first compound 0.1 µM); 0.0701 in the assay with BI-2536 + Lapatinib (first compound 0.3162 µM); 0.129 with BI-2536 + Lapatinib (first compound 1 µM); 0.618 with NPK76-II-72-1 + OSI-027 (first compound 0.01 µM); 0.626 with NPK76-II-72-1 + OSI-027 (first compound 0.03162 µM); 0.526 in the assay with NPK76-II-72-1 + OSI-027 (first compound 0.1 µM). The relative viability in the assay with NPK76-II-72-1 + OSI-027 (first compound 0.3162 µM) was found to be 0.578; with NPK76-II-72-1 + OSI-027 (first compound 1 µM) it was 0.627.
NCI-H1755: the relative viability stood at 0.291 in the assay with BI-2536 + Luminespib (first compound 0.01 µM); 0.416 in the assay with BI-2536 + Luminespib (first compound 0.03162 µM); 0.298 with BI-2536 + Luminespib (first compound 0.1 µM); 0.283 with BI-2536 + Luminespib (first compound 0.3162 µM); 0.327 with BI-2536 + Luminespib (first compound 1 µM); 0.452 in the assay with BI-2536 + AZD7762 (first compound 0.01 µM). Also, the relative viability was determined as 0.467 in the assay with BI-2536 + AZD7762 (first compound 0.03162 µM); 0.305 with BI-2536 + AZD7762 (first compound 0.1 µM); 0.253 with BI-2536 + AZD7762 (first compound 0.3162 µM); 0.265 in the assay with BI-2536 + AZD7762 (first compound 1 µM); 0.968 with BI-2536 + Lapatinib (first compound 0.01 µM); 0.982 in the assay with BI-2536 + Lapatinib (first compound 0.03162 µM). Besides, the relative viability with BI-2536 + Lapatinib (first compound 0.1 µM) worked out at 0.498; in the assay with BI-2536 + Lapatinib (first compound 0.3162 µM) it was 0.204; with BI-2536 + Lapatinib (first compound 1 µM), 0.272; with NPK76-II-72-1 + OSI-027 (first compound 0.01 µM), 0.763; with NPK76-II-72-1 + OSI-027 (first compound 0.03162 µM), 0.776; in the assay with NPK76-II-72-1 + OSI-027 (first compound 0.1 µM), 0.749. The relative viability with NPK76-II-72-1 + OSI-027 (first compound 0.3162 µM) amounted to 0.717; with NPK76-II-72-1 + OSI-027 (first compound 1 µM) it was 0.768.
With NCI-H3122, the relative viability with BI-2536 + Luminespib (first compound 0.01 µM) amounted to 0.11; in the assay with BI-2536 + Luminespib (first compound 0.03162 µM), 0.0932; with BI-2536 + Luminespib (first compound 0.1 µM), 0.107; with BI-2536 + Luminespib (first compound 0.3162 µM), 0.0899; in the assay with BI-2536 + Luminespib (first compound 1 µM) it was 0.0757; with BI-2536 + AZD7762 (first compound 0.01 µM), 0.939. Further, the relative viability was found to be 1 with BI-2536 + AZD7762 (first compound 0.03162 µM); 0.204 with BI-2536 + AZD7762 (first compound 0.1 µM); 0.139 with BI-2536 + AZD7762 (first compound 0.3162 µM); 0.117 with BI-2536 + AZD7762 (first compound 1 µM); 0.943 with BI-2536 + Lapatinib (first compound 0.01 µM); 1.07 in the assay with BI-2536 + Lapatinib (first compound 0.03162 µM). The relative viability was found to be 0.296 with BI-2536 + Lapatinib (first compound 0.1 µM); 0.258 with BI-2536 + Lapatinib (first compound 0.3162 µM); 0.228 in the assay with BI-2536 + Lapatinib (first compound 1 µM); 0.856 with NPK76-II-72-1 + OSI-027 (first compound 0.01 µM); 0.914 in the assay with NPK76-II-72-1 + OSI-027 (first compound 0.03162 µM); 0.929 with NPK76-II-72-1 + OSI-027 (first compound 0.1 µM). For the same cell line, the relative viability with NPK76-II-72-1 + OSI-027 (first compound 0.3162 µM) was found to be 0.911; in the assay with NPK76-II-72-1 + OSI-027 (first compound 1 µM), 1.02.
